Consider 28 compounds from patent US11827628B2, “Compositions and methods for inhibition of the JAK pathway” (Rigel Pharmaceuticals, Inc., priority 2005, dated 2023).

The test system of the first assay is up-regulation of ICAM-1 (CD54) by IFNγ in U937 human monocytic cells. Kind of assay: U937 IFNγ ICAM1 FACS Assay. The class given is cell-based. Conditions: Homo sapiens, U-937, U937 cells stimulated with IFNγ, ICAM-1 expression by FACS; read-out: IC50, Example 44. The method in brief: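 U937 cells in 10% FCS RPMI were preincubated 30 min at 37 °C with an 8-point, 3-fold compound dilution series in duplicate, then stimulated with IFNγ for 18–24 h. Surface ICAM-1 was stained with APC anti-ICAM-1 and read by flow cytometry as geometric mean on live-gated cells. EC50 was derived.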
On the technique in general: Flow cytometry measures light scatter and fluorescence of single cells or particles in a stream.
Take `NS(=O)(=O)c1cccc(Nc2ncc(F)c(Nc3ccc(Cc4ccncc4)cc3)n2)c1` [III-70, N2-(3-Aminosulfonylphenyl)-5-fluoro-N4-[4-(4-pyridinylmethyl)phenyl]-2,4-pyrimidinediamine]: the half-maximal inhibitory concentration (IC50) (as a rule, the concentration that inhibits the measured activity by half) came out at 1650 nM.

The assay is the same for the next values; noted with them: U937 cells stimulated with IFNγ; ICAM-1 expression by FACS; read-out: IC50, Example 44.
As to `Cc1nnc(COc2ccc(Nc3nc(Nc4ccc(F)c(S(N)(=O)=O)c4)ncc3F)cc2)o1` [Compound I-278, N2-(3-Aminosulfonyl-4-fluorophenyl)-5-fluoro-N4-[4-(5-methyl-1,3,4-oxadiazol-2-yl)methyleneoxyphenyl]-2,4-pyrimidinediamine], the IC50 is 2270 nM.
On the same count and under the same terms, with `Cc1nc(COc2ccc(Nc3nc(Nc4ccc(C)c(S(N)(=O)=O)c4)ncc3F)cc2)cs1` [Compound I-280, N2-(3-Aminosulfonyl-4-methylphenyl)-5-fluoro-N4-[4-(2-methylthiazol-4-yl)methyleneoxyphenyl]-2,4-pyrimidinediamine] the figure was 1460 nM; with `Cc1nc(COc2ccc(Nc3nc(Nc4cccc(S(N)(=O)=O)c4)ncc3F)cc2)cs1` [Compound I-281, N2-(3-Aminosulfonylphenyl)-5-fluoro-N4-[4-(2-methylthiazol-4-yl)methyleneoxyphenyl]-2,4-pyrimidinediamine], 975 nM.
Still for that read-out and setting: then `CNS(=O)(=O)c1cc(Nc2ncc(F)c(Nc3ccc(OCc4csc(C)n4)cc3)n2)ccc1C` [Compound I-282, 5-Fluoro-N2-[3-(N-methylaminosulfony)-4-methylphenyl]-N4-[4-(2-methylthiazol-4-yl)methyleneoxyphenyl]-2,4-pyrimidinediamine], with 3100 nM; and `CCN(CC)CCNS(=O)(=O)c1cccc(Nc2ncc(F)c(Nc3ccc(OCc4csc(C)n4)cc3)n2)c1` [Compound I-283, N2-[3-(2-N,N-Diethylaminoethyl)aminosulfonylphenyl)-5-fluoro-N4-[4-(2-methylthizol-4-yl)methyleneoxyphenyl]-2,4-pyrimidinediamine], with 2940 nM; and `CCN(CC)CCNS(=O)(=O)c1ccc(Nc2ncc(F)c(Nc3ccc(OCc4csc(C)n4)cc3)n2)cc1` [Compound I-284, N2-[4-(2-N,N-Diethylaminoethyl)aminosulfonylphenyl)-5-fluoro-N4-[4-(2-methylthizol-4-yl)methyleneoxyphenyl]-2,4-pyrimidinediamine], with 1550 nM.
The same measure, in the same setting: then `Cc1nc(COc2ccc(Nc3nc(Nc4ccc(S(N)(=O)=O)cc4)ncc3F)cc2)cs1` [Compound I-285, N2-(4-Aminosulfonylphenyl)-5-fluoro-N4-[4-(2-methylthiazol-4-yl)methyleneoxyphenyl]-2,4-pyrimidinediamine], with 1480 nM.
As to `CN1CCC(Oc2ccc(Nc3nc(Nc4cccc(S(N)(=O)=O)c4)ncc3F)cc2)C1` (stereo not shown) [II-9, N2-(3-Aminosulfonylphenyl)-5-fluoro-N4-(N-methylpyrrolidin-3-yloxyphenyl)-2,4-pyrimidinediamine], the IC50 came to 2720 nM.
Consider `Cc1ccc(Nc2ncc(F)c(Nc3ccc(OC4CCN(C)C4)cc3)n2)cc1S(N)(=O)=O` (stereo not shown) [II-10, N2-(3-Aminosulfonyl-4-methylphenyl)-5-fluoro-N4-(N-methylpyrrolidin-3-yloxyphenyl)-2,4-pyrimidinediamine], for which the IC50 was 1400 nM.
`CNS(=O)(=O)c1cc(Nc2ncc(F)c(Nc3ccc(CC#N)cc3)n2)ccc1C` [III-1, 5-Fluoro-N2-[3-(N-methylaminosulfony)-4-methylphenyl]-5-fluoro-N4-(4-cyanomethylphenyl)-2,4-pyrimidinediamine]: the 50% inhibitory concentration (IC50) came to 1120 nM.
Still for that read-out and setting: with `CCN(CC)CCNS(=O)(=O)c1ccc(Nc2ncc(F)c(Nc3ccc(CC#N)cc3)n2)cc1` [III-2, N2-[4-(2-N,N-Diethylaminoethyl)aminosulfonylphenyl)-5-fluoro-N4-(4-cyanomethylphenyl)-2,4-pyrimidinediamine] the figure was 6720 nM; with `N#CCc1ccc(Nc2nc(Nc3cccc(S(N)(=O)=O)c3)ncc2F)cc1` [III-4, N2-(3-Aminosulfonyl)phenyl-N4-(4-cyanomethyl)phenyl-5-fluoro-2,4-pyrimidinediamine], 1720 nM.
Still for that read-out and setting: then `Cc1ccc(Nc2ncc(F)c(Nc3ccc(CC#N)cc3)n2)cc1S(N)(=O)=O` [III-7, N2-(3-Aminosulfonyl-4-methyl)phenyl-N4-(4-cyanomethyl)phenyl-5-fluoro-2,4-pyrimidinediamine], with 1090 nM; and `N#CCc1ccc(Nc2nc(Nc3ccc(Cl)c(S(N)(=O)=O)c3)ncc2F)cc1` [III-8, N2-(3-Aminosulfonyl-4-chloro)phenyl-N4-(4-cyanomethyl)phenyl-5-fluoro-2,4-pyrimidinediamine], with 2250 nM; and `COc1cc(Nc2ncc(F)c(Nc3ccc(CC#N)cc3)n2)ccc1S(N)(=O)=O` [III-9, N2-(4-Aminosulfonyl-3-methoxy)phenyl-N4-(4-cyanomethyl)phenyl-5-fluoro-2,4-pyrimidinediamine], with 6980 nM.
In the case of `N#CCc1ccc(Nc2nc(Nc3ccc(F)c(S(N)(=O)=O)c3)ncc2F)cc1` [III-10, N2-(3-Aminosulfonyl-4-fluoro)phenyl-N4-(4-cyanomethyl)phenyl-5-fluoro-2,4-pyrimidinediamine], the IC50 stood at 3520 nM.
On the same count and under the same terms, with `Cc1ccc(Nc2ncc(C)c(Nc3ccc(CCC#N)cc3)n2)cc1S(N)(=O)=O` [III-11] the figure was 168 nM.
On the same count and under the same terms, with `N#CCCc1ccc(Nc2nc(Nc3cccc(S(N)(=O)=O)c3)ncc2F)cc1` [III-14, N2-(3-aminosulfonylphenyl)-N4-[4-(cyanoethylene)phenyl]-5-fluoro-2,4-pyrimidinediamine] the figure was 585 nM; with `Cc1ccc(Nc2ncc(F)c(Nc3ccc(CCC#N)cc3)n2)cc1S(N)(=O)=O` [III-15, N2-(3-Aminosulfonyl-4-methylphenyl)-N4-[4-(cyanoethylene)phenyl]-5-fluoro-2,4-pyrimidinediamine], 553 nM; with `N#CCCc1ccc(Nc2nc(Nc3ccc(F)c(S(N)(=O)=O)c3)ncc2F)cc1` [III-16, N2-(3-Aminosulfonyl-4-fluorophenyl)-N4-[4-(cyanoethylene)phenyl]-5-fluoro-2,4-pyrimidinediamine], 1800 nM.
In the case of `Cc1cnc(Nc2ccc(S(N)(=O)=O)cc2)nc1Nc1ccc(CCC#N)cc1` [III-27, N2-(4-Aminosulfonylphenyl)-N4-(4-cyanoethylenephenyl)-5-methyl-2,4-pyrimidinediamine], the IC50 amounted to 257 nM.
Still for that read-out and setting: with `N#CCCc1ccc(Nc2nc(Nc3cccc(S(N)(=O)=O)c3)ncc2F)cc1C(F)(F)F` [III-31, N4-(4-Cyanoethylene-3-trifluoromethylphenyl)-5-fluoro-N2-(3-aminosulfonylphenyl)-2,4-pyrimidinediamine] the figure was 1700 nM; with `NS(=O)(=O)c1cccc(Nc2ncc(F)c(Nc3cccc(CNC(=O)C4CC4)c3)n2)c1` [III-39, N2-(3-aminosulfonyl)phenyl-N4-(3-cyclopropylcarbonylaminomethyl)phenyl-5-fluoro-2,4-pyrimidinediamine], 1440 nM; with `Cc1ccc(Nc2ncc(F)c(Nc3cccc(CNC(=O)C4CC4)c3)n2)cc1S(N)(=O)=O` [III-40, N2-(3-aminosulfonyl-4-methyl)phenyl-N4-(3-cyclopropylcarbonylaminomethyl)phenyl-5-fluoro-2,4-pyrimidinediamine], 1120 nM.
As to “N2-(3-Aminocarbonyl-5-methylphenyl)-5-fluoro-N2-[4-(1-ethylpyrazol-5-yl)amidophenyl)-2,4-pyrimidinediamine [II-20]”, the IC50 amounted to 11500 nM.
Still for that read-out and setting: with “N2-(3-Aminocarbonyl-5-methylphenyl)-5-fluoro-N2-[4-(1-methylpyrazol-5-yl)amidophenyl)-2,4-pyrimidinediamine [II-21]” the figure was 41700 nM.
As to “N2-[3-Aminosulfonyl-4-(4-methylpiperazin-1-yl)phenyl]-5-fluoro-N4-[2-fluoro-4-(5-methylisoxazol-3-yl)methyleneoxyphenyl]-2,4-pyrimidinediamine [Compound I-251]”, the IC50 amounted to 1090 nM.
